According to US7714019B2 (priority 2002, dated 2010):

Tested on: HIV-1 single-round infectious reporter virus
Assay: microbe, parasite or virus in culture
Type: cell-based
Conditions: Human immunodeficiency virus 1, HeLa-CD4/CCR5, 72 h, read-out: EC50 Group from Table 1
Method: • Virus production-Human embryonic Kidney cell line, 293, propagated in Dulbecco's Modified Eagle Medium (Life Technologies, Gaithersburg, Md.) containing 10% fetal Bovine serum (FBS, Sigma, St. Louis, Mo.). • Virus infection-Human epithelial cell line, HeLa, expressing the HIV-1 receptors CD4 and CCR5 was propagated in Dulbecco's Modified Eagle Medium (Life Technologies, Gaithersburg, Md.) containing 10% fetal Bovine serum (FBS, Sigma, St. Louis, Mo.) and supplemented with 0.2 mg/mL Geneticin (Life Technologies, Gaithersburg, Md.) and 0.4 mg/mL Zeocin (Invitrogen, Carlsbad, Calif.). Virus—Single-round infectious reporter virus was produced by co-transfecting human embryonic Kidney 293 cells with an HIV-1 envelope DNA expression vector and a proviral cDNA containing an envelope deletion mutation and the luciferase reporter gene inserted in place of HIV-1 nef sequences (Chen et al, Ref. 41). Transfections were performed using lipofectAMINE PLUS reagent as described by the manufacturer (Life Technologies, Gaithersburg, Md.). Experiment • 1. Compound was added to HeLa CD4 CCR5 cells plated in 96 well plates at a cell density of 1×10^3 cells per well in 100 μl Dulbecco's Modified Eagle Medium containing 10% fetal Bovine serum at a concentration of <20 μM. • 2. 100 μl of single-round infectious reporter virus in Dulbecco's Modified Eagle Medium was then added to the plated cells and compound at an approximate multiplicity of infection (MOI) of 0.01, resulting in a final volume of 200 μl per well and a final compound concentration of <10 μM. • 3. Samples were harvested 72 h after infection. • 4. Viral infection was monitored by measuring luciferase expression from viral DNA in the infected cells using a luciferase reporter gene assay kit (Roche Molecular Biochemicals, Indianapolis, Ind.). Infected cell supernatants were removed and 50 μl of Dulbecco's Modified Eagle Medium (without phenol red) and 50 μl of luciferase assay reagent reconstituted as described by the manufacturer (Roche Molecular Biochemicals, Indianapolis, Ind.) was added per well. Luciferase activity was then quantified by measuring luminescence using a Wallac microbeta scintillation counter. • 5. […] An EC50 provides a method for comparing the antiviral potency of the compounds of this invention. The effective concentration for fifty percent inhibition (EC50) was calculated with the Microsoft Excel Xlfit curve fitting software. For each compound, curves were generated from percent inhibition calculated at 10 different concentrations by using a four parameter logistic model (model 205). Table 1 is the key for the data in Table 2. Results

O=C(NCC1CCN(C(=O)c2ccccc2)C1)C(=O)c1c[nH]c2cccc(F)c12 (centres unmarked) [Example 1, N-(1-Benzoyl-pyrrolidin-3-ylmethyl)-2-(4-fluoro-1H-indol-3-yl)-2-oxo-acetamide]
EC50: < 1 µM

CC(C)(C)OC(=O)NCC1CCN(C(=O)C(=O)c2c[nH]c3cccc(F)c23)C1 (centres unmarked) [Example 2, {1-[2-(4-Fluoro-1H-indol-3-yl)-2-oxo-acetyl]-pyrrolidin-3-ylmethyl}-carbamic acid tert-butyl ester]
EC50: > 5 µM

O=C(NCC1CCN(C(=O)C(=O)c2c[nH]c3cccc(F)c23)C1)c1ccccc1 (centres unmarked) [Example 3, N-{1-[2-(4-Fluoro-1H-indol-3-yl)-2-oxo-acetyl]-pyrrolidin-3-ylmethyl}-benzamide]
EC50: < 1 µM

O=C(NCC1CCN(C(=O)C(=O)c2cn(C(=O)c3ccccc3)c3cccc(F)c23)C1)c1ccccc1 (centres unmarked) [Example 4, N-{1-[2-(1-Benzoyl-4-fluoro-1H-indol-3-yl)-2-oxo-acetyl]-pyrrolidin-3-ylmethyl}-benzamide]
EC50: < 1 µM

O=Cc1ccc(F)c2c(C(=O)C(=O)NCC3CCN(C(=O)c4ccccc4)C3)c[nH]c12 (centres unmarked) [Example 5, N-(1-Benzoyl-pyrrolidin-3-ylmethyl)-2-(4-fluoro-7-formyl-1H-indol-3-yl)-2-oxo-acetamide]
EC50: 1 to 5 µM

O=C(NCC1CCN(C(=O)c2ccccc2)C1)C(=O)c1c[nH]c2ncccc12 (centres unmarked) [Example 6, N-(1-Benzoyl-pyrrolidin-3-ylmethyl)-2-oxo-2-(1H-pyrrolo[2,3-b]pyridin-3-yl)-acetamide]
EC50: > 5 µM

O=C(NCC1CCN(C(=O)c2ccccc2)C1)C(=O)c1c[nH]c2c(C(=O)O)ccc(F)c12 (centres unmarked) [Example 7]
EC50: 1 to 5 µM

CNC(=O)c1ccc(F)c2c(C(=O)C(=O)NCC3CCN(C(=O)c4ccccc4)C3)c[nH]c12 (centres unmarked) [Example 8]
EC50: < 1 µM

O=C(NC[C@@H]1CCN(C(=O)C(=O)c2c[nH]c3c(Br)ccc(F)c23)C1)c1ccccc1 [Example 9, N-{1-[2-(7-Bromo-4-fluoro-1H-indol-3-yl)-2-oxo-acetyl]-pyrrolidin-3-ylmethyl}-benzamide]
EC50: < 1 µM

O=C(NC[C@H]1CCN(C(=O)C(=O)c2c[nH]c3c(Br)ccc(F)c23)C1)c1ccccc1 [Example 10, N-{1-[2-(7-Bromo-4-fluoro-1H-indol-3-yl)-2-oxo-acetyl]-pyrrolidin-3-ylmethyl}-benzamide]
EC50: < 1 µM

O=C(NC[C@H]1CCN(C(=O)C(=O)c2c[nH]c3c(-c4cc[nH]n4)ccc(F)c23)C1)c1ccccc1 [Example 11, N-(1-{2-[4-Fluoro-7-(1H-pyrazol-3-yl)-1H-indol-3-yl]-2-oxo-acetyl}-pyrrolidin-3-ylmethyl)-benzamide]
EC50: < 1 µM

O=C(NC[C@@H]1CCN(C(=O)C(=O)c2c[nH]c3c(-c4cc[nH]n4)ccc(F)c23)C1)c1ccccc1 [Example 12, N-(1-{2-[4-Fluoro-7-(1H-pyrazol-3-yl)-1H-indol-3-yl]-2-oxo-acetyl}-pyrrolidin-3-ylmethyl)-benzamide]
EC50: < 1 µM

O=C(NCC1CCCN1C(=O)C(=O)c1c[nH]c2ccccc12)c1ccccc1 (centres unmarked) [Example 13]
EC50: < 1 µM

CN(C(=O)c1c[nH]c2ccccc12)C1CCN(C(=O)c2ccccc2)C1 (centres unmarked) [Example 14, 1H-Indole-3-carboxylic acid (1-benzoyl-pyrrolidin-3-yl)-methyl-amide]
EC50: > 5 µM
